Data on 21 molecules can be found in patent publication US8846656B2, “Tetrahydropyrido-pyridine and tetrahydropyrido-pyrimidine compounds and use thereof as C5a receptor modulators” (Novartis AG, priority 2011, dated 2014).

Like-named read-outs stand apart in the source and are kept apart here.

In assay [1] the test system is CD11b. The assay can be described thus: Human whole blood CD11b up-regulation assay. It counts as cell-based. Conditions: 2 nM human C5a, CD15+ granulocytes, read-out: hCD11b IC50. As for the experimental part:
Whole blood was collected in sodium heparin tubes and the assay started within 2 hours of the blood draw. The blood was incubated with compounds in 1% DMSO (dimethyl sulfoxide) at room temperature for 10 minutes with gentle rocking. 2 nM of human C5a was then added for 15 minutes at room temperature with gentle rocking. Following the C5a incubation period cells were washed once with cold FACS (fluorescence-activated cell sorting) buffer (phosphate buffered saline+0.5% bovine serum albumin) FITC (fluorescein isothiocyanate) mouse anti-human CD15 and PE-Cy5 (phycoerythrin-cyanine 5) mouse anti-human CD11b antibodies (Becton Dickinson) were gently mixed with the cells and allowed to incubate for 30 minutes on ice protected from the light. Cells were then washed three times with cold FACS buffer. Red blood cells (RBC) were lysed by incubating with BD FACS lysis buffer (Becton Dickinson) for 10 minutes at room temperature. Cells were pelleted and the lysing procedure was repeated until all RBCs were lysed. The remaining leukocytes were resuspended in BD lysis buffer. Samples were acquired on the LSR^11 flow cytometer and 10,000 events of the CD15+ granulocyte population were collected. The CD11b median fluorescence intensity of the CD 15+ cell population was evaluated using FACSDiva software (Becton Dickinson).

Assay [2] has as its target human C5aR (Homo sapiens (Human), UniProt P21730). The assay can be described thus: FLIPR assay: inhibition of C5a-mediated calcium mobilization. Type of assay: cell-based. Conditions: stable cell line over expressing human C5aR & Gα15, human C5a at EC50 (0.1-0.25 nM). In outline: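 Stable cell line overexpressing human C5aR with Gα15, measured on FLIPR Tetra. Cells loaded 1 h at 37° C with calcium 5 dye and 2.5 mM probenecid in HBSS/20 mM HEPES/0.1% BSA. Compounds preincubated 30 minutes at room temperature in 1% DMSO before C5a.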

human C5aR, sequence (P21730 whole entry): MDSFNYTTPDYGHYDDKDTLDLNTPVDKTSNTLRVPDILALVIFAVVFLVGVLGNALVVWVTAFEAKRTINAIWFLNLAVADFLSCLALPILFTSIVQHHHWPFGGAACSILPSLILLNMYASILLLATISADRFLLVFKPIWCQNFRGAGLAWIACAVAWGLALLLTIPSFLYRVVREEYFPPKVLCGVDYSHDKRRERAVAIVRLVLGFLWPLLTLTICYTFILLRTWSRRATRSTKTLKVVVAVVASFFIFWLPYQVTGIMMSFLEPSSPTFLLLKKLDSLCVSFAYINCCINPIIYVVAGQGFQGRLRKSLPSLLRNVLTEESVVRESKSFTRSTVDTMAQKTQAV

Turning to `[2H]C1([2H])c2c(C)cc(-c3c(C)ccc4[nH]ncc34)nc2CCN1c1cc(OC)ccc1C` [Example 45, 6-(5-Methoxy-2-methylphenyl)-4-methyl-2-(5-methyl-1H-indazol-4-yl)-5,6,7,8-tetrahydro(5,5-^2H2)-1,6-naphthyridine], the values for the half-inhibitory concentration (IC50) in assay [1] (Homo sapiens) and in assay [2] were 583 nM and 27 nM, respectively.
On the same counts, the results for `CO[C@H]1CCN(c2nc(-c3cccc4[nH]cc(C)c34)nc3c2CN(c2cc(C(C)C)ccc2C)CC3)[C@H](C)C1` [Example 17-P, 6-(5-isopropyl-2-methylphenyl)-4-((2R,4S)-4-methoxy-2-methylpiperidin-1-yl)-2-(3-methyl-1H-indol-4-yl)-5,6,7,8-tetrahydropyrido[4,3-d]pyrimidine] are 70 nM and 13 nM.
Taken in the same sequence, the figures for `CO[C@H]1CCN(c2nc(-c3c(C)cccc3C)nc3c2CN(c2cc(C(F)(F)F)ccc2C)CC3)CC1(C)C` [Example 19-AB, (S)-2-(2,6-dimethylphenyl)-4-(4-methoxy-3,3-dimethylpiperidin-1-yl)-6-(2-methyl-5-(trifluoromethyl)phenyl)-5,6,7,8-tetrahydropyrido[4,3-d]pyrimidine] were 26 nM and 17 nM.
Take `Cc1ccc(C(C)C)cc1N1CCc2nc(-c3cccc4[nH]cc(C)c34)cc(C)c2C1` [Example 40-D, 6-(5-Isopropyl-2-methylphenyl)-4-methyl-2-(3-methyl-1H-indol-4-yl)-5,6,7,8-tetrahydro-1,6-naphthyridine]: the 50% inhibitory concentration (IC50) in assay [1] turned out to be 264 nM; in assay [2] it was 132 nM.
For the molecule `CO[C@@H]1CCN(c2nc(-c3c(C)cccc3C)nc3c2CN(c2cc(C(F)(F)F)ccc2C)CC3)[C@H](C)C1` [Example 21-AK, 2-(2,6-dimethylphenyl)-4-((2R,4R)-4-methoxy-2-methylpiperidin-1-yl)-6-(2-methyl-5-(trifluoromethyl)phenyl)-5,6,7,8-tetrahydropyrido[4,3-d]pyrimidine], the IC50 was 51 nM in assay [1] (Homo sapiens) and 5 nM in assay [2].
Turning to `CO[C@H]1CCN(c2nc(-c3c(C)ccc4[nH]nc(C)c34)nc3c2CN(c2c(Cl)c(C4CC4)nn2C)CC3)CC1(C)C` [Example 55-L, (S)-6-(4-Chloro-3-cyclopropyl-1-methyl-1H-pyrazol-5-yl)-2-(3,5-dimethyl-1H-indazol-4-yl)-4-(4-methoxy-3,3-dimethylpiperidin-1-yl)-5,6,7,8-tetrahydropyrido[4,3-d]pyrimidine], the IC50 was determined as 36 nM in assay [1] (Homo sapiens) and 3 nM in assay [2].
On the same counts, the results for `CCc1cccc(CC)c1-c1cc(C)c2c(n1)CCN(c1cc(C3CC3)ccc1C)C2` [Example 40-M, 6-(5-cyclopropyl-2-methylphenyl)-2-(2,6-diethylphenyl)-4-methyl-5,6,7,8-tetrahydro-1,6-naphthyridine] are 69 nM and 11 nM.
Taken in the same sequence, the figures for `[2H]C1([2H])c2c(C)cc(-c3cccc4[nH]cc(C)c34)nc2CCN1c1c(C)cccc1C` [Example 44-E, 6-(2,6-dimethylphenyl)-4-methyl-2-(3-methyl-1H-indol-4-yl)-5,6,7,8-(5,5-^2H2)tetrahydro-1,6-naphthyridine] were 188 nM and 38 nM.
On the same counts, the results for `CO[C@H]1CCN(c2nc(-c3c(C)ccc4[nH]nc(C)c34)nc3c2CN(c2cc(C(F)(F)F)nn2C)CC3)CC1(C)C` [Example 23-K, (S)-2-(3,5-dimethyl-1H-indazol-4-yl)-4-(4-methoxy-3,3-dimethylpiperidin-1-yl)-6-(1-methyl-3-(trifluoromethyl)-1H-pyrazol-5-yl)-5,6,7,8-tetrahydropyrido[4,3-d]pyrimidine] are 11 nM and 64 nM.
For `Cc1ccccc1N1CCc2nc(-c3c(C)cccc3C)nc(N(C)CC(C)(C)O)c2C1` [Example 17-H, 1-((2-(2,6-Dimethylphenyl)-6-(o-tolyl)-5,6,7,8-tetrahydropyrido[4,3-d]pyrimidin-4-yl)(methyl)amino)-2-methylpropan-2-ol], the IC50 in assay [1] (Homo sapiens) turned out to be 300 nM; in assay [2], 10 nM.
For the molecule `COC1CCN(c2nc(-c3cccc4[nH]cc(C)c34)nc3c2CN(c2cc(C(C)C)ccc2C)CC3)[C@H](C)C1` (stereo in doubt) [Example 17-R, 6-(5-isopropyl-2-methylphenyl)-4-((2R,4S)-4-methoxy-2-methylpiperidin-1-yl)-2-(3-methyl-1H-indol-4-yl)-5,6,7,8-tetrahydropyrido[4,3-d]pyrimidine], the IC50 in assay [1] (Homo sapiens) is 42 nM; in assay [2] it was 10 nM.
On the same counts, the results for `CO[C@@H]1CCN(c2nc(-c3c(C)ccc4[nH]nc(C)c34)nc3c2CN(c2cc(C(F)(F)F)nn2C)CC3)[C@H](C)C1` [Example 23-J, 2-(3,5-dimethyl-1H-indazol-4-yl)-4-((2R,4R)-4-methoxy-2-methylpiperidin-1-yl)-6-(1-methyl-3-(trifluoromethyl)-1H-pyrazol-5-yl)-5,6,7,8-tetrahydropyrido[4,3-d]pyrimidine] are 38 nM and 8 nM.
On the same counts, the results for `CCc1cccc(CC)c1-c1cc(C)c2c(n1)CCN(c1cc(C(C)C)ccc1C)C2` [Example 41-J, 2-(2,6-diethylphenyl)-6-(5-isopropyl-2-methylphenyl)-4-methyl-5,6,7,8-tetrahydro-1,6-naphthyridine] are 302 nM and 22 nM.
Taken in the same sequence, the figures for `[2H]C1([2H])c2c(C)cc(-c3cccc4[nH]cc(C)c34)nc2CCN1c1c(C)nn(CC)c1C` [Example 47-B, 6-(1-Ethyl-3,5-dimethyl-1H-pyrazol-4-yl)-4-methyl-2-(3-methyl-1H-indol-4-yl)-5,6,7,8-tetrahydro(5,5-^2H2)-1,6-naphthyridine] were 1420 nM and 56 nM.
For the molecule `COc1nc(-c2c(C)ccc3[nH]nc(C)c23)nc2c1CN(c1cc(C(C)C)ccc1C)CC2` [Example 31-I, 2-(3,5-dimethyl-1H-indazol-4-yl)-6-(5-isopropyl-2-methylphenyl)-4-methoxy-5,6,7,8-tetrahydropyrido[4,3-d]pyrimidine], the results for the half-maximal inhibitory concentration (IC50) in assay [1] (Homo sapiens) and in assay [2] were 18 nM and 9 nM, respectively.
On the same counts, the results for `CO[C@@H]1CCN(c2nc(-c3c(C)ccc4[nH]nc(C)c34)nc3c2CN(c2c(Cl)c(C(F)(F)F)nn2C)CC3)CC1(C)C` [Example 55-N, (R)-6-(4-chloro-1-methyl-3-(trifluoromethyl)-1H-pyrazol-5-yl)-2-(3,5-dimethyl-1H-indazol-4-yl)-4-(4-methoxy-3,3-dimethylpiperidin-1-yl)-5,6,7,8-tetrahydropyrido[4,3-d]pyrimidine] are 12 nM and 6 nM.
On the same counts, the results for `Cc1ccc(C(C)C)cc1N1CCc2nc(-c3cccc4[nH]cc(C)c34)nc(N3CCN(C4COC4)[C@H](C)C3)c2C1` [Example 30-A, (R)-6-(5-Isopropyl-2-methylphenyl)-2-(3-methyl-1H-indol-4-yl)-4-(3-methyl-4-(oxetan-3-yl)piperazin-1-yl)-5,6,7,8-tetrahydropyrido[4,3-d]pyrimidine] are 5780 nM and 16 nM.
Taken in the same sequence, the figures for `Cc1ccc(C(C)C)cc1N1CCc2nc(-c3c(C)ccc4[nH]nc(C)c34)nc(N3CCOC[C@H]3C)c2C1` [Example 65-K, (R)-4-(2-(3,5-dimethyl-1H-indazol-4-yl)-6-(5-isopropyl-2-methylphenyl)-5,6,7,8-tetrahydropyrido[4,3-d]pyrimidin-4-yl)-3-methylmorpholine] were 26 nM and 2 nM.
As for `Cc1c[nH]c2cccc(-c3nc4c(c(N5CCN(CC(N)=O)[C@H](C)C5)n3)CN(c3ccccc3C(F)(F)F)CC4)c12` [Example 24-D, (R)-2-(2-methyl-4-(2-(3-methyl-1H-indol-4-yl)-6-(2-(trifluoromethyl)phenyl)-5,6,7,8 tetrahydropyrido[4,3-d]pyrimidin-4-yl)piperazin-1-yl)acetamide], the figures for the IC50 in assay [1] (Homo sapiens) and in assay [2] were 1500 nM and 91 nM, respectively.
As for `CO[C@@H]1CCN(c2nc(-c3c(C)cccc3C)nc3c2CN(c2cc(C(C)C)ccc2C)CC3)[C@H](C)C1` [Example 21-D, 2-(2,6-Dimethylphenyl)-6-(5-isopropyl-2-methylphenyl)-4-((2R,4R)-4-methoxy-2-methylpiperidin-1-yl)-5,6,7,8-tetrahydropyrido[4,3-d]pyrimidine], the IC50 in assay [1] (Homo sapiens) came out at 7 nM; in assay [2], 0.5 nM.
Take `CO[C@@H]1CCN(c2nc(-c3c(C)ccc4[nH]nc(C)c34)nc3c2CN(c2cc(C(F)(F)F)ccc2C)CC3)[C@H](C)C1` [Example 21-AH, 2-(3,5-dimethyl-1H-indazol-4-yl)-4-((2R,4R)-4-methoxy-2-methylpiperidin-1-yl)-6-(2-methyl-5-(trifluoromethyl)phenyl)-5,6,7,8-tetrahydropyrido[4,3-d]pyrimidine]: the half-maximal inhibitory concentration (IC50) turned out to be 6 nM in assay [1] (Homo sapiens) and 1 nM in assay [2].
